This is an account of results in PubChem BioAssay (NCI).

Some test systems named below: COLO 205 colon; HCT-15 colon; HL-60(TB) leukemia; IGROV1 ovarian; LOX IMVI melanoma; M14 melanoma; MCF7 breast; MDA-MB-435; MOLT-4 leukemia; OVCAR-3 ovarian; OVCAR-8 ovarian; RPMI-8226 leukemia; SK-MEL-5 melanoma; SN12C renal; SNB-19 CNS; TK-10 renal; U251 CNS; UACC-257 melanoma; CCRF-CEM leukemia.
Holding throughout (test): NCI anticancer screen, dose series, 48 h

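Assay format: 96-well plates, 48-hour exposure. TGI marks complete inhibition of growth.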 A value given as a limit tells only on which side of the number the result lay.

For the compound `Cn1c2ccccc2c(=O)c2cccc(C(=O)NC(CS)C(=O)O)c21` (configuration not stated), the TGI in the assay with COLO 205 colon was greater than 100 µM; in the assay with HCT-15 colon, greater than 100 µM; with HL-60(TB) leukemia it was 38.9 µM; with IGROV1 ovarian it was greater than 100 µM; in the assay on LOX IMVI melanoma, greater than 100 µM; with M14 melanoma, greater than 100 µM. The TGI in the assay with MCF7 breast, with MDA-MB-435, in the assay with MOLT-4 leukemia, with OVCAR-3 ovarian, with OVCAR-8 ovarian and with RPMI-8226 leukemia was greater than 100 µM throughout. The TGI in the assay on SK-MEL-5 melanoma, in the assay on SN12C renal, in the assay with SNB-19 CNS, with TK-10 renal, in the assay on U251 CNS and with UACC-257 melanoma was greater than 100 µM in each case.
In the case of `C=C(Nc1nc2ccc(C)cc2s1)C(=O)C(CC)C(=O)C(CC)CC1C(=O)NC(=O)NC1=O` (configuration not stated), the TGI in the assay on CCRF-CEM leukemia, with COLO 205 colon, with HCT-15 colon, in the assay on HL-60(TB) leukemia, with IGROV1 ovarian and in the assay on LOX IMVI melanoma was greater than 100 µM in each case. In addition, the TGI in the assay on M14 melanoma, in the assay on MCF7 breast, with MDA-MB-435, in the assay on MOLT-4 leukemia, in the assay with OVCAR-3 ovarian and in the assay on OVCAR-8 ovarian was greater than 100 µM in each case. For the same compound, the TGI in the assay on SK-MEL-5 melanoma, in the assay on SN12C renal, in the assay with SNB-19 CNS, with TK-10 renal, with U251 CNS and in the assay with UACC-257 melanoma was greater than 100 µM each time.
Regarding `CCOC(=O)[C@H](C)OC(=O)[C@@](C)(NC(=O)c1ccccc1C(=O)OC)[C@@H]1NC=C(C(=O)OC)CS1`, the TGI in the assay on CCRF-CEM leukemia was 63.9 µM; with COLO 205 colon, greater than 100 µM; with HCT-15 colon it was greater than 100 µM; in the assay with IGROV1 ovarian, greater than 100 µM; in the assay with M14 melanoma it was greater than 100 µM; in the assay with MCF7 breast it was greater than 100 µM. The TGI is 85.6 µM in the assay on MDA-MB-435; greater than 100 µM in the assay with MOLT-4 leukemia; greater than 100 µM in the assay on OVCAR-3 ovarian; greater than 100 µM in the assay with OVCAR-8 ovarian; greater than 100 µM in the assay on RPMI-8226 leukemia; greater than 100 µM with SK-MEL-5 melanoma. The TGI with SN12C renal, in the assay on SNB-19 CNS, in the assay on TK-10 renal, in the assay on U251 CNS and in the assay on UACC-257 melanoma was greater than 100 µM throughout.
As for `CCC(=O)O[C@H]1CC[C@H]2[C@@H]3CCC4=C/C(=N/OC(=O)c5cccc6cc7ccccc7nc56)CC[C@]4(C)[C@H]3CC[C@]12C`, the TGI with CCRF-CEM leukemia, in the assay on COLO 205 colon, in the assay with HCT-15 colon, in the assay on HL-60(TB) leukemia, with IGROV1 ovarian and in the assay on LOX IMVI melanoma was greater than 100 µM throughout. Besides, the TGI in the assay with M14 melanoma, with MCF7 breast, with MDA-MB-435, with MOLT-4 leukemia, with OVCAR-3 ovarian and in the assay with OVCAR-8 ovarian was greater than 100 µM throughout. Besides, the TGI is greater than 100 µM in the assay with RPMI-8226 leukemia; 31.5 µM in the assay with SK-MEL-5 melanoma; greater than 100 µM in the assay with SN12C renal; greater than 100 µM with SNB-19 CNS; greater than 100 µM in the assay on U251 CNS; greater than 100 µM in the assay with UACC-257 melanoma.
On to `CCSC1=N/C(=C\c2ccc(N(C)C)cc2)C(Cl)=N1`, for which the TGI in the assay on CCRF-CEM leukemia, in the assay with COLO 205 colon, with HCT-15 colon, in the assay with HL-60(TB) leukemia, with IGROV1 ovarian and in the assay on M14 melanoma was greater than 100 µM throughout. In addition, the TGI with MCF7 breast, with MDA-MB-435, in the assay with MOLT-4 leukemia, in the assay with OVCAR-3 ovarian, in the assay on OVCAR-8 ovarian and in the assay with RPMI-8226 leukemia was greater than 100 µM throughout. Besides, the TGI in the assay on SK-MEL-5 melanoma, in the assay on SN12C renal, in the assay with SNB-19 CNS, in the assay with TK-10 renal, in the assay with U251 CNS and with UACC-257 melanoma was greater than 100 µM in each case.
In the case of `O=C(NNC(=O)c1ccccc1O)c1cccc(Br)c1`, the TGI with COLO 205 colon, in the assay with HCT-15 colon, in the assay with HL-60(TB) leukemia, in the assay with IGROV1 ovarian, in the assay on LOX IMVI melanoma and in the assay on M14 melanoma was greater than 100 µM each time. Besides, the TGI in the assay with MCF7 breast was greater than 60.3 µM; in the assay on MDA-MB-435, greater than 100 µM; with MOLT-4 leukemia it was greater than 81 µM; with OVCAR-3 ovarian, greater than 100 µM; with OVCAR-8 ovarian, greater than 100 µM; in the assay on RPMI-8226 leukemia, greater than 100 µM. For the same compound, the TGI in the assay with SK-MEL-5 melanoma, in the assay with SN12C renal, with SNB-19 CNS, in the assay with TK-10 renal, in the assay on U251 CNS and in the assay on UACC-257 melanoma was greater than 100 µM throughout.
For `CN1C(=O)C2CCCC(=O)N2c2cccnc21` (configuration not stated), the TGI in the assay on CCRF-CEM leukemia, in the assay on COLO 205 colon, in the assay on HCT-15 colon, in the assay with HL-60(TB) leukemia, in the assay with IGROV1 ovarian and with LOX IMVI melanoma was greater than 100 µM throughout. In addition, the TGI in the assay on MCF7 breast, in the assay with MDA-MB-435, with MOLT-4 leukemia, with OVCAR-3 ovarian, in the assay with OVCAR-8 ovarian and in the assay on RPMI-8226 leukemia was greater than 100 µM in each case. The TGI with SK-MEL-5 melanoma, with SN12C renal, in the assay with SNB-19 CNS, in the assay on TK-10 renal, with U251 CNS and with UACC-257 melanoma was greater than 100 µM in each case.
For the compound `Cc1nc2ccc(F)cc2c2c1CCN2c1ccc(Cl)cc1`, the TGI in the assay with CCRF-CEM leukemia was 31 µM; in the assay on COLO 205 colon it was 20.6 µM; with HCT-15 colon, greater than 100 µM; in the assay on HL-60(TB) leukemia it was 17.7 µM; in the assay on IGROV1 ovarian it was 40 µM; with LOX IMVI melanoma, 33 µM. The TGI with M14 melanoma is 21.4 µM; in the assay on MCF7 breast it was 26.4 µM; in the assay on MDA-MB-435 it was 33.5 µM; with OVCAR-3 ovarian, greater than 100 µM; with OVCAR-8 ovarian, 34.2 µM; in the assay with SK-MEL-5 melanoma, 12.3 µM. In addition, the TGI was 97.6 µM in the assay with SN12C renal; greater than 100 µM in the assay on SNB-19 CNS; 41.7 µM with TK-10 renal; 71.8 µM with U251 CNS; 13.8 µM in the assay with UACC-257 melanoma.
